Measurements reported in article PMC6271976, “Inhibition of Human Cytochrome P450 Enzymes by Bacopa monnieri Standardized Extract and Constituents” (Molecules, 2014).

Tests used:
CYP2D6 = CYP2D6 (Homo sapiens, UniProt P10635); test: Luminescent P450-Glo recombinant human CYP2D6 inhibition assay
Source text: (§1) The inhibitory effects of B. monnieri standardized extract and the constituents bacoside A, bacoside A3, bacopaside II, bacopaside X, bacopasaponin C and bacopaside I on human cytochrome P450 enzyme were examined using an in vitro luminescent assay. The P450-Glo™ substrates are converted by CYP enzymes to a luciferin product that reacts with a Luciferin Detection Reagent to produce light. The amount of light produced is directly proportional to the CYP enzyme activity. The net signals from untreated (added with buffer or solvent) CYP reactions represent total CYP activity (without any inhibition = 100%). […] The test compounds that inhibit CYP enzymes caused a reduction in CYP activity and therefore generated less light/signal.
(§2) The assay was carried out using P450-Glo™ Screening System (Cat.# V9770, V9790, V9880, V9890, V9910) from Promega (Madison, WI, USA). The system includes a membrane preparation containing recombinant human cytochrome P450 (CYP) enzyme, negative control membranes, a luminogenic substrate appropriate for the CYP enzyme, an NADPH regeneration system (containing nicotinamide adenine dinucleotide phosphate (NADP^+), glucose-6-phosphate, magnesium chloride (MgCl2) and glucose-6-phosphate dehydrogenase functioning to initiate and sustain the CYP450 reaction by maintaining a non-limiting NADPH system), reaction buffer, Luciferin Detection Reagent and Luciferin-Free Water. The membranes were prepared from baculovirus-infected insect cells and contained recombinant human CYP enzyme and P450 reductase (and cytochrome b5 for CYP2C9, 2C19 and 3A4). The negative control membranes were devoid of CYP activity. The dried powder of B. monnieri standardized methanolic extract containing 50% bacosides (batch No.: C92352/H) was purchased from Sami Labs Ltd. (Karnataka, India). Bacoside A, bacoside A3, bacopaside II, bacopaside X, bacopasaponin C and bacopaside I were purchased from Chromadex Inc. (Irvine, CA, USA).
(§3) The enzyme assay was performed in 96-well white bottom flat plates (Nunc, Roskilde, Denmark). The concentration of B. monnieri extract was 0.01–1000 µg/mL, and the positive controls and compounds (bacoside A, bacoside A3, bacopaside II, bacopaside X, bacopasaponin C and bacopaside I) were 0.01–100 µM. The concentration of the extracts, compounds and positive controls were prepared at 4× the original concentration. All extracts and compounds were dissolved in dimethyl sulfoxide (DMSO). The organic solvent was kept below 0.25% (v/v) in the incubation mixture. First, 12.5 μL of the 4× test compounds or positive controls (appropriate for each enzyme) were added to the “treated” wells. For the “untreated” (the values from these wells represent total CYP activity) and “minus-P450 control” wells (the values from these wells represent the CYP-independent background luminescence of the assay), 12.5 μL of vehicle (1% DMSO) was added. Then, 12.5 μL of the 4× control reaction mixture (containing membrane preparations devoid of CYP enzymes, the appropriate luminogenic substrate, and potassium phosphate buffer) were added to the minus-P450 control wells, and 12.5 μL of the 4× reaction mixture (containing human CYP membrane preparations, the appropriate luminogenic substrate, and potassium phosphate buffer) were added to all other wells. The plate was pre-incubated at room temperature for 10 min, and then 2× NADPH regeneration system was added to initiate the reaction. After incubation at room temperature for 30 min (45 min for CYP2D6), 50 μL of the reconstituted Luciferin Detection Reagent was added to stop the reaction and generate the luminescent signal. Before reading, the plate was incubated at room temperature for 20 min to stabilize the luminescent signal. The luminescence in all of the samples was measured using an Infinite F200 plate reader (Tecan, Männedorf, Switzerland).

CYP2C9 = CYP2C9 (Homo sapiens, UniProt P11712); test: Luminescent P450-Glo recombinant human CYP2C9 inhibition assay
Chain of CYP2C9 (P11712 whole entry): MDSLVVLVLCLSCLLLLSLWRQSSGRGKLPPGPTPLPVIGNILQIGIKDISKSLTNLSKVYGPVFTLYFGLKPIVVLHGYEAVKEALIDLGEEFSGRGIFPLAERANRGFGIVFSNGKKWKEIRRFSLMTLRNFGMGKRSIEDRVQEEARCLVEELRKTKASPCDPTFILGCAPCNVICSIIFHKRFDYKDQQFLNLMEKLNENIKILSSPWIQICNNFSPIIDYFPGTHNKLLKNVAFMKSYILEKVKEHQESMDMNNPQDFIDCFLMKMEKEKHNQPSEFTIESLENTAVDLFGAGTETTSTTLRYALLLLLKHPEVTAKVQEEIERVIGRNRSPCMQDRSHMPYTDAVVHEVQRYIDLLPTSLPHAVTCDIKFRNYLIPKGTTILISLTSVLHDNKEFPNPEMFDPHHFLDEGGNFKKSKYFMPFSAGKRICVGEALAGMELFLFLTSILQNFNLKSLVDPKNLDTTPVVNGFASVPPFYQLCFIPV
Source text: as §1, §2, §3

CYP1A2 = molecular target: T1, CYP1A2 (Homo sapiens, UniProt P05177); test: Luminescent P450-Glo recombinant human CYP1A2 inhibition assay
T1 sequence (P05177 2-516 limits assumed): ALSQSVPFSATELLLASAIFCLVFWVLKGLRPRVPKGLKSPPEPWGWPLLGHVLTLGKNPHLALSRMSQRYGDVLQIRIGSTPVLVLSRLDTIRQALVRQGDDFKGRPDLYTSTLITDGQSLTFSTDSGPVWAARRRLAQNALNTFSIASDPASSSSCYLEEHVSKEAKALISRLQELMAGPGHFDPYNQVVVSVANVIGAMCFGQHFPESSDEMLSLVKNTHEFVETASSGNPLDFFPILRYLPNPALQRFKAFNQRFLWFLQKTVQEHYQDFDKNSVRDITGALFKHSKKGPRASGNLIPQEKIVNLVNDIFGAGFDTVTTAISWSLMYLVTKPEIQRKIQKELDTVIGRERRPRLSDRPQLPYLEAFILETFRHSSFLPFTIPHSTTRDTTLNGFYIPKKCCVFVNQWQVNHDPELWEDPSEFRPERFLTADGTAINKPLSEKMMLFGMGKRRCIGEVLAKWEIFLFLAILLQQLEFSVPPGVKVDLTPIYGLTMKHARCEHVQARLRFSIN
Source text: as §1, §2, §3

CYP3A4 = CYP3A4 (Homo sapiens, UniProt P08684); test: Luminescent P450-Glo recombinant human CYP3A4 inhibition assay
Chain of CYP3A4 (P08684 2-503): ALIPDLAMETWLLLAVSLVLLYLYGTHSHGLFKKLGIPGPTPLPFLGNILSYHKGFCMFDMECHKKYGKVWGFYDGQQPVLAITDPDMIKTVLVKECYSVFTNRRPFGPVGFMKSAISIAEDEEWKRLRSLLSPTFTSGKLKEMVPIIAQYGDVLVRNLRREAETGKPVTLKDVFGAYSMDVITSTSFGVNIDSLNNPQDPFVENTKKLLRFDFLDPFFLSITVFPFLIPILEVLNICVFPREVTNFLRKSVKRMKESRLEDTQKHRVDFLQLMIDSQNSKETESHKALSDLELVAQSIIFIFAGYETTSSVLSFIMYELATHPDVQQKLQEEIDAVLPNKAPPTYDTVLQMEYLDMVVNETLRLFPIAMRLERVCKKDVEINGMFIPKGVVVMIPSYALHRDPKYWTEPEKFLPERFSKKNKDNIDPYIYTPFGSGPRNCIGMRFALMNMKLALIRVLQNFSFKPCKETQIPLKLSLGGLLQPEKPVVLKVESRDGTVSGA
Source text: as §1, §2, §3

CYP2C19 = CYP2C19 (Homo sapiens, UniProt P33261); test: Luminescent P450-Glo recombinant human CYP2C19 inhibition assay
Chain of CYP2C19 (P33261 whole entry): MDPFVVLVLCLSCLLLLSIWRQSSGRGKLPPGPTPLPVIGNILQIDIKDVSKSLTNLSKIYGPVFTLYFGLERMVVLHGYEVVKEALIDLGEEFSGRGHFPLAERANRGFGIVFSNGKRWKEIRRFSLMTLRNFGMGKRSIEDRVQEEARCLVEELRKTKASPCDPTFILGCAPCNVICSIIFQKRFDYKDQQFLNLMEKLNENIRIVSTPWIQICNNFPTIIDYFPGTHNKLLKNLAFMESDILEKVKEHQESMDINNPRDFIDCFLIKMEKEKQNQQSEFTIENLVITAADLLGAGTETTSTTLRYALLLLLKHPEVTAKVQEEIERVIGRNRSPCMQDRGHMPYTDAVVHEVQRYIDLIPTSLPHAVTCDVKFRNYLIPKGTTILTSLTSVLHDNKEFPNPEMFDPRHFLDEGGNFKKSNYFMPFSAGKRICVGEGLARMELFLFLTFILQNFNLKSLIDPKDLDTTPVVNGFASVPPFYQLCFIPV
Source text: as §1, §2, §3

Chain of CYP2D6 (P10635 whole entry): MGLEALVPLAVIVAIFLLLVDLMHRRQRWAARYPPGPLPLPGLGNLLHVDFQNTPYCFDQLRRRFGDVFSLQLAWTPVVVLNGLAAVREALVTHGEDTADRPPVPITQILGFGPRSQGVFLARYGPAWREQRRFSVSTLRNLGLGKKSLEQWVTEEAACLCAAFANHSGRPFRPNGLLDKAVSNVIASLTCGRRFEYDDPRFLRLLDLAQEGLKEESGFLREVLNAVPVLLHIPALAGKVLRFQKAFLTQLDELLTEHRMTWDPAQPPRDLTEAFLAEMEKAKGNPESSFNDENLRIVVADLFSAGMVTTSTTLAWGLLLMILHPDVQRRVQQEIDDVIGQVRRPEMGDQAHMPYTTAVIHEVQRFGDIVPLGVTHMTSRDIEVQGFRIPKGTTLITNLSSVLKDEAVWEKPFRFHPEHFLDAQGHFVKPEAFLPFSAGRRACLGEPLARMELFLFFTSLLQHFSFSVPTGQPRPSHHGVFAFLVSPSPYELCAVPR

SMILES | IC50 (CYP2D6) [µM] | IC50 (CYP2C9) [µM] | IC50 (CYP1A2) [µM] | IC50 (CYP3A4) [µM] | IC50 (CYP2C19) [µM] | Inhibition of CYP2D6 in words (CYP2D6; concentrations up to 100 µM) | Inhibition of CYP2C9 in words (CYP2C9; concentrations up to 100 µM) | Inhibition of CYP1A2 in words (CYP1A2; concentrations up to 100 µM) | Inhibition of CYP3A4 in words (CYP3A4; concentrations up to 100 µM) | Inhibition of CYP2C19 in words (CYP2C19; concentrations up to 100 µM)
CC(C)=CC1COC23CC4(CO2)C(CCC2C5(C)CCC(OC6OC(CO)C(O)C(OC7OC(CO)C(O)C(O)C7O)C6OC6OC(CO)C(O)C6O)C(C)(C)C5CCC24C)C3C1(C)O (stereo not drawn) [bacopaside II] | > 100 | > 100 | > 100 | > 100 | > 100 |  |  |  |  | 
CC(C)=CC1COC23CC4(CO2)C(CCC2C5(C)CCC(OC6OCC(O)C(OC7OC(COS(=O)(=O)O)C(O)C(O)C7O)C6OC6OC(CO)C(O)C6O)C(C)(C)C5CCC24C)C3C1(C)O (stereo not drawn) [bacopaside I] | > 100 | > 100 | > 100 | > 100 | > 100 |  |  |  |  | 
CC(C)=C[C@H]1C[C@](C)(O)[C@@H]2[C@H]3CC[C@@H]4[C@@]5(C)CC[C@H](O[C@@H]6O[C@H](CO)[C@@H](O)[C@H](O[C@@H]7O[C@H](CO)[C@@H](O)[C@H](O)[C@H]7O)[C@H]6O[C@@H]6O[C@@H](CO)[C@H](O)[C@H]6O)C(C)(C)[C@@H]5CC[C@@]4(C)[C@@]34CO[C@@]2(C4)O1 [bacoside A3] | > 100 | > 100 | > 100 | > 100 | > 100 | negligible inhibition | negligible inhibition | negligible inhibition | negligible inhibition | negligible inhibition
CC(C)=C[C@H]1C[C@](C)(O)[C@@H]2[C@H]3CC[C@@H]4[C@@]5(C)CC[C@H](O[C@@H]6OC[C@H](O)[C@H](O[C@@H]7O[C@H](CO)[C@@H](O)[C@H](O)[C@H]7O)[C@H]6O[C@@H]6O[C@@H](CO)[C@H](O)[C@H]6O)C(C)(C)[C@@H]5CC[C@@]4(C)[C@@]34CO[C@@]2(C4)O1 [bacopaside X] | > 100 | > 100 | > 100 | > 100 | > 100 |  |  |  |  | 
CC(C)=C[C@@H]1CO[C@]23C[C@]4(CO2)[C@H](CC[C@@H]2[C@@]5(C)CC[C@H](O[C@@H]6OC[C@H](O)[C@H](O[C@@H]7O[C@H](CO)[C@@H](O)[C@H](O)[C@H]7O)[C@H]6O[C@@H]6O[C@@H](CO)[C@H](O)[C@H]6O)C(C)(C)[C@@H]5CC[C@]24C)[C@H]3[C@@]1(C)O [bacopasaponin C] | > 100 | > 100 | > 100 | > 100 | > 100 |  |  |  |  | 
